Where a name gives a salt, the structure may show the parent alone.

We go through four compounds from patent US12215106B2, “Pharmaceutical compounds and therapeutic methods” (RUTGERS, THE STATE UNIVERSITY OF NEW JERSEY, priority 2018, dated 2025).

The data set deals with Caco-2 cells. Put plainly: Bi-directional Caco-2 transport assay. The settings on record: for Papp (A-B) / Papp (B-A) / Efflux Ratio (B-A/A-B): human, Caco-2, 90 min, 5 μM; for Papp (A-B) / Papp (B-A): pH 7.4; for P-gp substrate: Caco-2. It counts as in vitro ADME. Here is the method: The objective of the study is to evaluate test compounds as substrates for efflux transporter using Caco-2 cell line. To assess the functionality of P-glycoprotein (P-gp), loperamide was run as a positive control (Apical and basolateral HBSS pH 7.4).
5 mM DMSO stock of test compounds and loperamide was diluted 1000-folds in HBSS having 0.1% DMSO to prepare concentrations of 5 μM.
Caco-2 cells were grown in DMEM (20% FBS) until 85-90% confluence. After attaining required confluence, cells were trypsinized and seeded into 24 well millcell plates at a density of 0.6×10^5 cells/insert. The plates were maintained for 21 days at 37° C. in CO2 incubator with change of medium every alternative day. Monolayer integrity was monitored by measuring Trans-epithelial electrical resistance (TEER) from day 15.
Caco-2 cell monolayer was washed twice with HBSS and incubated for 40 min in CO2 incubator. TEER values were measured and wells showing TEER values above 230 ohms·cm^2 were taken for experiments. The study was performed in loperamide and test compounds by adding 400 μL of loperamide prepared in HBSS in apical (A-B transport) followed by addition of 800 μL of HBSS on basal side and for B-A transport 800 μL of loperamide prepared in HBSS was dosed in basal followed by addition of 400 μL HBSS on apical side. At selected time points (0, 15, 30, 60 and 90 mins) an aliquot of 50 μL was collected from the receiver compartment for determination of test compound concentrations. The volume withdrawn was replaced immediately with HBSS buffer. TEER was measured at the end to the experiment to confirm any damage of monolayer while performing experiment. Those wells with TEER not meeting the criteria were excluded from the study.
A 50 μL of test compound samples collected at respective time points and submitted for LC-MS/MS analysis.
The apparent permeability (Papp) (A−B & B−A) of test compounds and positive control was calculated using the following formula: Papp=dQ/dt/A·Co where, dQ/dt=linear slope of test compound concentration in receptor chamber with time (0, 15, 30, 60 and 90 min) after correcting for dilution; A=area of the filter (0.7 cm^2); and Co=initial concentration of compound in the donor compartment.
Efflux ratio (RE) was calculated using the following equation: RE=PB/A/PA/B where PB/A and PA/B represent the apparent permeability of test compound from the basal to apical and apical to basal side of cell monolayer.
Recovery represents: (amount of the compound recovered from donor at end of incubation+cumulative amount of compound in acceptor at end of incubation+amount of the compound in cell lysate or assay well)/amount of compound in donor solution at time zero*100
Compounds are classified based on Papp values as follows:
A compound having efflux ratio of >2 is considered as having potential as a P-gp substrate.
For orientation: Caco-2 monolayers are a common model of the intestinal barrier.

Regarding `COc1c(F)cc(Nc2nc(-c3c(C)nc4ccccn34)cs2)cc1F` [Compound 14, hydrochloride], the “Papp (A-B)” value was 0.0 ± 0.0 10^−6 cm/sec and the “Papp (B-A)” value was 0.0 ± 0.0 10^−6 cm/sec.
`[2H]C([2H])([2H])Oc1ccc(Nc2nc(-c3c(C)nc4ccccn34)cs2)cc1` [Compound 15, N-(4-(methoxy-d3)phenyl)-4-(2-methylimidazo[1,2-c]pyridin-3-yl)thiazol-2-amine hydrochloride]: the “Papp (A-B)” value is on record as 0.0 ± 0.0 10^−6 cm/sec and the “Papp (B-A)” value is 0.0 ± 0.0 10^−6 cm/sec.
On to `Cc1nc2ccccn2c1-c1csc(Nc2ccc3c(c2)OC(F)(F)O3)n1` [Compound 16, N-(2,2-difluorobenzo[d][1,3]dioxol-5-yl)-4-(2-methylimidazo[1,2-a]pyridin-3-yl)thiazol-2-amine hydrochloride], for which the P-gp substrate entry is on record as “not P-gp substrate” and the “Efflux Ratio (B-A/A-B)” value was 0.9.
With `[2H]C1([2H])Oc2ccc(Nc3nc(-c4c(C)nc5ccccn45)cs3)cc2O1` [Compound 17, N-(benzo[d][1,3]dioxol-5-yl-2,2-d2)-4-(2-methylimidazo[1,2-c]pyridin-3-yl)thiazol-2-amine hydrochloride], the P-gp substrate entry is reported as “not P-gp substrate” and the “Efflux Ratio (B-A/A-B)” value amounted to 1.3.
